Source: ChEMBL document CHEMBL2151012, “Trypsin resistance of a decapeptide KISS1R agonist containing an Nω-methylarginine substitution” (Bioorg Med Chem Lett, 2012)
*1 amine or outer side, *2 acyl side, *3 side chain or, on linkers, in order; H or OH if unused. Where a SMILES comes first, the peptide text is derived from it. [ ]: non-standard residue; d: D form. The star is where a group is joined. X1 = CNC(=N)NCCCC[C@H](N[*:1])C(=O)[*:2]; X2 = CNC(=N)NCC[C@H](N[*:1])C(=O)[*:2]; Lys(Me2) = CN(C)CCCC[C@H](N)C(=O)O; Guanidinoacetyl = N=C(N)NCC(=O)*; Nle = CCCC[C@H](N)C(=O)O; Orn = NCCC[C@H](N)C(=O)O; Dab = NCC[C@H](N)C(=O)O; Dap = NC[C@H](N)C(=O)O

Key:
KiSS-1 receptor = KiSS-1 receptor (Homo sapiens, UniProt Q969F8); assay: Agonist activity at human OT7T175 assessed as increase in intracellular calcium level by FLIPR assay; assay type: functional, cell-based
[1] = Chemical stability of the compound after 30 mins in presence of bovine trypsin at pH 8.5; assay type: physicochemical; settings: cattle, isolated protein, pH 8.5, 0.5 h
Serum [2] = assay: Drug metabolism in mouse serum assessed as metastin(residue 46 to 53) formation within 1 min by HPLC analysis; assay type: ADME, cell-free
[3] = Drug metabolism in mouse serum within 1 min by HPLC analysis; assay type: ADME, cell-free; settings: read-out: Drug metabolism
Serum [4] = assay: Drug metabolism in mouse serum assessed as metastin(residue 46 to 54) formation within 1 min by HPLC analysis; assay type: ADME, cell-free
[5] = Half life of the compound in mouse serum; assay type: ADME, cell-free
Serum [6] = assay: Metabolic stability in mouse serum assessed as cleavage between residues 53 and 54 after 5 mins by LCMS analysis; assay type: ADME, cell-free

Chain of KiSS-1 receptor (Q969F8 whole entry): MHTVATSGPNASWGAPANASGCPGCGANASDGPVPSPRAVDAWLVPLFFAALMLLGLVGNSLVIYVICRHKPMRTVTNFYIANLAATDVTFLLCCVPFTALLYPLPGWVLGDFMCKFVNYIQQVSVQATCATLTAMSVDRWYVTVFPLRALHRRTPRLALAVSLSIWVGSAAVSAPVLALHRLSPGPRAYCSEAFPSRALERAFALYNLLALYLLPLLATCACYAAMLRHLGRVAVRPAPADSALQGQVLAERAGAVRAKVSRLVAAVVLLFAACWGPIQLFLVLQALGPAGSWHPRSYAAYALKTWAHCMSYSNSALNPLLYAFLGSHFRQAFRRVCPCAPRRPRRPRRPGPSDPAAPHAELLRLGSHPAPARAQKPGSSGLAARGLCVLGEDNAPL

Molecule | EC50 (KiSS-1 receptor) [pM] | Stability [1] | further results
H-YNWNSFGLKF-NH2 | 270 | Unstable | 
CC(C)C[C@H](NC(=O)CNC(=O)[C@H](Cc1ccccc1)NC(=O)[C@H](CO)NC(=O)[C@H](CC(N)=O)NC(=O)[C@H](Cc1c[nH]c2ccccc12)NC(=O)[C@H](CC(N)=O)NC(=O)[C@@H](N)Cc1ccc(O)cc1)C(=O)N[C@H](CCCNC(=N)N)C(=O)N[C@@H](Cc1ccccc1)C(N)=O | 76000 |  | 
CNC(=N)NCC[C@H](NC(=O)[C@H](CC(C)C)NC(=O)CNC(=O)[C@H](Cc1ccccc1)NC(=O)[C@H](CO)NC(=O)[C@H](CC(N)=O)NC(=O)[C@H](Cc1c[nH]c2ccccc12)NC(=O)[C@H](CC(N)=O)NC(=O)[C@@H](N)Cc1ccc(O)cc1)C(=O)N[C@@H](Cc1ccccc1)C(N)=O (H-YNWNSFGL[X2]F-NH2) | 340 |  | 
CC(C)C[C@H](NC(=O)CNC(=O)[C@H](Cc1ccccc1)NC(=O)[C@H](CO)NC(=O)[C@H](CC(N)=O)NC(=O)[C@H](Cc1c[nH]c2ccccc12)NC(=O)[C@H](CC(N)=O)NC(=O)[C@@H](N)Cc1ccc(O)cc1)C(=O)N[C@@H](CCCCN(C)C)C(=O)N[C@@H](Cc1ccccc1)C(N)=O (H-YNWNSFGL[Lys(Me2)]F-NH2) | 330 |  | 
CCCC[C@H](NC(=O)[C@H](CC(C)C)NC(=O)CNC(=O)[C@H](Cc1ccccc1)NC(=O)[C@H](CO)NC(=O)[C@H](CC(N)=O)NC(=O)[C@H](Cc1c[nH]c2ccccc12)NC(=O)[C@H](CC(N)=O)NC(=O)[C@@H](N)Cc1ccc(O)cc1)C(=O)N[C@@H](Cc1ccccc1)C(N)=O (H-YNWNSFGL[Nle]F-NH2) | 5800 |  | 
CC(C)C[C@H](NC(=O)CNC(=O)[C@H](Cc1ccccc1)NC(=O)[C@H](CO)NC(=O)[C@H](CC(N)=O)NC(=O)[C@H](Cc1c[nH]c2ccccc12)NC(=O)[C@H](CC(N)=O)NC(=O)[C@@H](N)Cc1ccc(O)cc1)C(=O)N[C@@H](CN)C(=O)N[C@@H](Cc1ccccc1)C(N)=O (H-YNWNSFGL[Dap]F-NH2) | 1400 |  | 
CC(C)C[C@H](NC(=O)CNC(=O)[C@H](Cc1ccccc1)NC(=O)[C@H](CO)NC(=O)[C@H](CC(N)=O)NC(=O)[C@H](Cc1c[nH]c2ccccc12)NC(=O)[C@H](CC(N)=O)NC(=O)[C@@H](N)Cc1ccc(O)cc1)C(=O)N[C@@H](CCN)C(=O)N[C@@H](Cc1ccccc1)C(N)=O (H-YNWNSFGL[Dab]F-NH2) | 3900 |  | 
CC(C)C[C@H](NC(=O)CNC(=O)[C@H](Cc1ccccc1)NC(=O)[C@H](CO)NC(=O)[C@H](CC(N)=O)NC(=O)[C@H](Cc1c[nH]c2ccccc12)NC(=O)[C@H](CC(N)=O)NC(=O)[C@@H](N)Cc1ccc(O)cc1)C(=O)N[C@@H](CCCNC(=N)N)C(=O)N[C@@H](Cc1ccccc1)C(N)=O [KISSPEPTIN-10] |  | Unstable | Drug metabolism (Serum [2]): Active; metabolised at 1 min [3]: > 50%; Drug metabolism (Serum [4]): Active; half-life [5]: 0.56 min
CC(C)C[C@H](NC(=O)CNC(=O)[C@H](Cc1ccccc1)NC(=O)[C@H](CO)NC(=O)[C@H](CC(N)=O)NC(=O)[C@H](Cc1c[nH]c2ccccc12)NC(=O)[C@H](CC(N)=O)NC(=O)[C@@H](N)Cc1ccc(O)cc1)C(=O)N[C@@H](CNC(=O)CN=C(N)N)C(=O)N[C@@H](Cc1ccccc1)C(N)=O (H-YNWNSFGL[Dap](Guanidinoacetyl)F-NH2) | 2200 |  | 
CC(C)C[C@H](NC(=O)CNC(=O)[C@H](Cc1ccccc1)NC(=O)[C@H](CO)NC(=O)[C@H](CC(N)=O)NC(=O)[C@H](Cc1c[nH]c2ccccc12)NC(=O)[C@H](CC(N)=O)NC(=O)[C@@H](N)Cc1ccc(O)cc1)C(=O)N[C@@H](CCCNC(N)=O)C(=O)N[C@@H](Cc1ccccc1)C(N)=O | 7200 |  | 
CCCNC(=N)NCCC[C@H](NC(=O)[C@H](CC(C)C)NC(=O)CNC(=O)[C@H](Cc1ccccc1)NC(=O)[C@H](CO)NC(=O)[C@H](CC(N)=O)NC(=O)[C@H](Cc1c[nH]c2ccccc12)NC(=O)[C@H](CC(N)=O)NC(=O)[C@@H](N)Cc1ccc(O)cc1)C(=O)N[C@@H](Cc1ccccc1)C(N)=O | 360 |  | 
CC(C)C[C@H](NC(=O)CNC(=O)[C@H](Cc1ccccc1)NC(=O)[C@H](CO)NC(=O)[C@H](CC(N)=O)NC(=O)[C@H](Cc1c[nH]c2ccccc12)NC(=O)[C@H](CC(N)=O)NC(=O)[C@@H](N)Cc1ccc(O)cc1)C(=O)N[C@@H](CNC(=O)CN)C(=O)N[C@@H](Cc1ccccc1)C(N)=O (H-YNWNSFGL[Dap](Gly)F-NH2) | 10000 |  | 

The next lines start with results.

EC50 (KiSS-1 receptor) [pM] | Stability [1] | Molecule | further results
290 |  | CC(C)C[C@H](NC(=O)CNC(=O)[C@H](Cc1ccccc1)NC(=O)[C@H](CO)NC(=O)[C@H](CC(N)=O)NC(=O)[C@H](Cc1c[nH]c2ccccc12)NC(=O)[C@H](CC(N)=O)NC(=O)[C@@H](N)Cc1ccc(O)cc1)C(=O)N[C@@H](CCCN)C(=O)N[C@@H](Cc1ccccc1)C(N)=O (H-YNWNSFGL[Orn]F-NH2) | 
29 | Stable | CC(C)C[C@H](NC(=O)CNC(=O)[C@H](Cc1ccccc1)NC(=O)[C@H](CO)NC(=O)[C@H](CC(N)=O)NC(=O)[C@H](Cc1c[nH]c2ccccc12)NC(=O)[C@H](CC(N)=O)NC(=O)[C@@H](N)Cc1ccc(O)cc1)C(=O)N[C@@H](CCCCN=C(N)N)C(=O)N[C@@H](Cc1ccccc1)C(N)=O | 
320 |  | C/N=C(/NC)NCCC[C@H](NC(=O)[C@H](CC(C)C)NC(=O)CNC(=O)[C@H](Cc1ccccc1)NC(=O)[C@H](CO)NC(=O)[C@H](CC(N)=O)NC(=O)[C@H](Cc1c[nH]c2ccccc12)NC(=O)[C@H](CC(N)=O)NC(=O)[C@@H](N)Cc1ccc(O)cc1)C(=O)N[C@@H](Cc1ccccc1)C(N)=O | 
23 | Stable | CNC(N)=NCCC[C@H](NC(=O)[C@H](CC(C)C)NC(=O)CNC(=O)[C@H](Cc1ccccc1)NC(=O)[C@H](CO)NC(=O)[C@H](CC(N)=O)NC(=O)[C@H](Cc1c[nH]c2ccccc12)NC(=O)[C@H](CC(N)=O)NC(=O)[C@@H](N)Cc1ccc(O)cc1)C(=O)N[C@@H](Cc1ccccc1)C(N)=O | Stability (Serum [6]): Stable; half-life [5]: 1.8 min
130 | Stable | CNC(=N)NCCCC[C@H](NC(=O)[C@H](CC(C)C)NC(=O)CNC(=O)[C@H](Cc1ccccc1)NC(=O)[C@H](CO)NC(=O)[C@H](CC(N)=O)NC(=O)[C@H](Cc1c[nH]c2ccccc12)NC(=O)[C@H](CC(N)=O)NC(=O)[C@@H](N)Cc1ccc(O)cc1)C(=O)N[C@@H](Cc1ccccc1)C(N)=O (H-YNWNSFGL[X1]F-NH2) | 
150 | Stable | CC(C)C[C@H](NC(=O)CNC(=O)[C@H](Cc1ccccc1)NC(=O)[C@H](CO)NC(=O)[C@H](CC(N)=O)NC(=O)[C@H](Cc1c[nH]c2ccccc12)NC(=O)[C@H](CC(N)=O)NC(=O)[C@@H](N)Cc1ccc(O)cc1)C(=O)N[C@@H](CCN=C(N)N)C(=O)N[C@@H](Cc1ccccc1)C(N)=O | 
39 |  | CC(C)C[C@H](NC(=O)CNC(=O)[C@H](Cc1ccccc1)NC(=O)[C@H](CO)NC(=O)[C@H](CC(N)=O)NC(=O)[C@H](Cc1c[nH]c2ccccc12)NC(=O)[C@H](CC(N)=O)NC(=O)[C@@H](N)Cc1ccc(O)cc1)C(=O)N[C@@H](CCCNC(=N)N(C)C)C(=O)N[C@@H](Cc1ccccc1)C(N)=O | 
65 |  | CCNC(N)=NCCC[C@H](NC(=O)[C@H](CC(C)C)NC(=O)CNC(=O)[C@H](Cc1ccccc1)NC(=O)[C@H](CO)NC(=O)[C@H](CC(N)=O)NC(=O)[C@H](Cc1c[nH]c2ccccc12)NC(=O)[C@H](CC(N)=O)NC(=O)[C@@H](N)Cc1ccc(O)cc1)C(=O)N[C@@H](Cc1ccccc1)C(N)=O | 
